The structures appear in SMILES notation.

The source of these data is patent US4775684A, “1,3-dioxane ethers” (Imperial Chemical Industries PLC, priority 1985, dated 1988).

For one assay, the target named is T1, rat aortal strip (Rattus norvegicus, UniProt P34978).
T1 construct: rat aortal strip model; from tissue; host or cells: rat aorta strip
T1 sequence (P34978 1-341): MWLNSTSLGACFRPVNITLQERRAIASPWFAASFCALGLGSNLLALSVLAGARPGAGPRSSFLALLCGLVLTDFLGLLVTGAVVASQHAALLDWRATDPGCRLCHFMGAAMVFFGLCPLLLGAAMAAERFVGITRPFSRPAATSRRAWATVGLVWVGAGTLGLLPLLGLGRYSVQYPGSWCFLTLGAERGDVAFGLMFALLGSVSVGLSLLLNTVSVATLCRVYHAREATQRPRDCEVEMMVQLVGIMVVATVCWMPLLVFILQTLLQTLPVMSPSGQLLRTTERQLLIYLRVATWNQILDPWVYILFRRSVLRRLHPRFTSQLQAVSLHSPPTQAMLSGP
Briefly: rat aortal strip model (procedure (a)), agonist U46619. In kind it is cell-based. Conditions: read-out: pA2 (converted). The text has this: As stated earlier, the compounds of formula I are antagonists of one or more of the actions of TXA2, for example certain of its actions on blood platelets, the vasculature and/or the lung.
(a) The rabbit aortal strip model devised by Piper and Vane (Nature, 1969, 223, 29-35) or the rat aortal strip model developed by Kennedy et alia (Prostaglandins, 1982, 24, 667-689), using as agonist the TXA2 mimtic agent known as U46619 (described by R. L. Jones et alia, in "Chemistry, Biochemistry and Pharmacological Activity of Prostanoids" edited by S. M. Roberts and F. Scheinmann, at page 211, Pergamon Press, 1979);

Assay [1] concerns the target T2, U46619 stimulated platelet aggregation (Homo sapiens, UniProt P21731).
T2 construct: human, citrated platelet-rich plasma; endogenous in cells; host or cells: human platelets in citrated platelet-rich plasma
T2 sequence (P21731 1-343): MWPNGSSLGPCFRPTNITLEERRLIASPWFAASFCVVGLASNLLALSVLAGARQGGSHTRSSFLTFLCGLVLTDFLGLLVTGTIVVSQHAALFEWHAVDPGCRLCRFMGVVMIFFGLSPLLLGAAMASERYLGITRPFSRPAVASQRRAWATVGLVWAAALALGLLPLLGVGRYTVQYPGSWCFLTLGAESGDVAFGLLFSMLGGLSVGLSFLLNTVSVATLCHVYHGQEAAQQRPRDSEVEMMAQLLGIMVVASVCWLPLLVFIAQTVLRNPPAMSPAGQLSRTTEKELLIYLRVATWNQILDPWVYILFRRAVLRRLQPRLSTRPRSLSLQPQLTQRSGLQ
Briefly: blood platelet aggregation test (procedure (b)), U46619 stimulated aggregation of human citrated platelet-rich plasma. In kind it is cell-based. As to conditions: U46619, averaged over several concentrations. The text has this:
(b) a blood platelet aggregation test based on that described by Born (Nature, 1962, 194, 927-929) and involving:
(i) aggregating human, citrated platelet-rich plasma by addition of the TXA2 mimetic agent U46619 so that a dose-response curve is generated;
(ii) generating a dose-response curve for U46619 stimulated platelet aggregation in the presence of increasing amounts of test compound (generally in the range, 10^-5 M to 10^-10 M); and
(iii) calculating a KB value indicating potency of TXA2 antagonism for the test compound, averaged over several concentrations, from the calculated 50% response value for U46619 aggregation in the presence and absence of test compound; and […]

`CC(C)(Oc1ccccc1)[C@@H]1OC[C@H](C/C=C\CCC(=O)O)[C@H](c2ccccc2O)O1` (relative stereo) [Example 6, 4(Z)-6-([2,4,5-cis]-2-[1-methyl-1-phenoxyethyl]-4-o-hydroxyphenyl-1,3-dioxan-5-yl)hexenoic acid]: the results for the Kb (at rat aortal strip; in assay [1]) were 0.195 nM and 17.5 nM, respectively.
